Earlier results on two compounds are cited in US6794370B2, “Method for treating cancer using camptothecin derivatives and 5-fluorouracil” (priority 1999, dated 2004).

Read-outs that look alike come from different tables or passages of the source.

Series [1] relates to metastatic colorectal cancer. The note with it: 125 mg/m^2 intravenously.
For series [2], the system named is colorectal cancer. The note with it: compared with supportive care only.
Series [3] deals with colorectal cancer. The note with it: metastatic disease, compared to no antitumour therapy.
In series [4] the test system is colorectal cancer.

For Irinotecan [CPT-11], in series [1] (first of two studies), the median survival was 12.1 months and the response rate is recorded as 32%. In addition, in series [1] (second of two studies), the median survival was 11.8 months and the response rate was 26%. Also, in series [2], the quality of life entry is “better quality of life” and the survival entry is “longer survival”.
As for `O=c1[nH]cc(F)c(=O)[nH]1` [5-FU, 5-fluorouracil], the survival time in series [3] is on record as 11 months. In series [4] (bolus administration), the median survival time was 11.3 months and the response rate is on record as 14%. In addition, in series [4] (infusional administration), the median survival time is 12.1 months and the response rate was 22%.
